Data reported in paper PMC9704104, “Towards safer anti-inflammatory therapy: synthesis of new thymol–pyrazole hybrids as dual COX-2/5-LOX inhibitors” (Journal of Enzyme Inhibition and Medicinal Chemistry, 2022).
Several values for one entry are separate records, joined by “and”; a condition that tells them apart may be missing. Equal values may be shown once.

Tests used:
5-LOX = assay: In vitro 5-LOX inhibitory assay (Abnova 5-LOX inhibitor screening assay kit); assay type: biochemical
From the text: The newly synthesised compounds were screened for their ability to inhibit 5-LOX enzymes. […] (Page: S21, Supplementary file). […]
In vitro LOX inhibitory assay
Inhibitor Screening Assay Kit detects and measures the hydroperoxides produced in the lipoxygenation reaction using a purified LOX. The detection reaction is equally sensitive to hydroperoxides at various positions within the fatty acid and will work with fatty acids of any carbon length. It is thus a general detection method for 5-LOX and can be used to screen libraries of compounds for those which inhibit 5 -LOX enzymes.
1) Blank Wells- add 100 µL of assay buffer to at least two wells.
2) Positive Control Wells- Lipoxygenase (15-LO standard) add 90 µL 15-LO and 10 µL of assay buffer […]
3) 100% Initial Activity Wells- add 90 µL 15-LO and 10 µL of solvent (DMSO) (the same solvent to dissolve the inhibitor) to two wells. The 100% initial activity wells should result in approximately 10 […]
4) Inhibitor Wells- add 90 µL of sample and I10 µL of inhibitor to two wells.
5) Initiate the reaction by adding 10 µL of substrate (either arachidonic acid or linoleic acid) to all the wells. Place the 96-well plate on a shaker for at least five minutes.
6) Add 100 µL of chromogen to each well to stop enzyme catalysis and develop the reaction. Cover with a plate cover and place the 96-well plate on a shaker for at least five minutes.
7) Remove the cover and read the absorbance at 490-500 nm using a plate reader.
Inhibitors were dissolved in DMSO. The inhibitors were added to the assay in a final volume of 10 µL before initiating with substrate. Three concentrations were prepared (25, 50 and 100 µM) to determine the concentration produced 50% enzyme inhibition.
2) The absorbance of blank wells was subtracted from absorbance of the 100% Initial activity and the […]

[1] = test system: formalin-induced rat paw oedema; assay: Formalin-induced paw oedema test (acute inflammation model); assay type: in vivo
Description: Animals Adult female albino rats weighing 150-250 g were used (Experimental Animal Centre in Alexandria University). All animals accessed to food and water ad libitum and were housed in 12 h dark/light cycle in a controlled condition at 23-250C. They were allowed to acclimatize for 1 week prior to experimentation. Procedures involving animals and their care were conducted in conformity with the Guide for the Care and Use of Laboratory Animals published by US National Institute of Health4 (NIH publication No. 83-23, revised) and following the ethical guidelines of Alexandria University on laboratory animals. In all tests, adequate considerations were adopted to reduce pain or discomfort of animals (Approved by AlexU-IACUC) 3. […]
Formalin-induced paw edema test (acute inflammation model):
A solution of freshly prepared formalin 5% was used as a phlogistic agent. A mark was made on the lateral malleolus of the rats’ paws delineating the injection sites. The initial volume of paw was measured by means of digital calibrated Vernier caliper .
After 45 minutes, 40 μl formalin were injected subcutaneously into the sub plantar tissue of the right hind paw of all groups under light ether anesthesia . An equal volume of saline was injected into the left hind paw and served as internal control for the degree of inflammation in the right hind paw. 5, 6 The volume of paw was measured in different treatment groups, 4 h following the formalin injection and the amount of increase in paw volume (edema volume) was calculated by subtracting the volumes before and 4 h after the injection of formalin. Edema was expressed as an increase in the volume of paw, and the percentage of edema inhibition (or percent protection against inflammation) for each rat and each group was calculated according to the following equation: […]
Where Vt is the mean volume of edema at specific time interval (4 h) and Vo is the mean volume of edema […]
Relative potency of the tested compounds was expressed as % inhibition of edema for the tested compounds

## Cc1ccc(C(C)C)c(O)c1C=NNC(=O)c1cc(-c2ccccc2)n(-c2ccccc2)n1 [Compound 8d, N'-(2-Hydroxy-3-isopropyl-6-methylbenzylidene)-1,5-diphenyl-1H-pyrazole-3-carbo-hydrazide]
5-LOX
  IC50: 3.11 ± 0.046 µM
[1]; 4 h, individual rats 1-3, 5 mg/kg orally, 5 mg/kg
  % Inhibition of oedema volume: 58.10% and 50.70% and 53.10%
[1]; 4 h after formalin, individual rats 1-3, 5 mg/kg orally, 5 mg/kg
  Volume of oedema (ml) 4h: 5.95 mL and 6.03 mL and 6.02 mL
[1]; 4 h minus 0, individual rats 1-3, 5 mg/kg orally, 5 mg/kg
  Abs diff.: 0.93 and 1.07 and 1.0
[1]; relative to % inhibition of celecoxib at 4 h, group mean ± SD
  % Relative potency (4h) celecoxib, Mean ± SD: 149.0 ± 17.26%
[1]; relative to % inhibition of celecoxib at 4 h, individual rats 1-3
  % Relative potency (4h) celecoxib: 165.40% and 131.0% and 150.70%
[1]; relative to % inhibition of diclofenac at 4 h, group mean ± SD
  % Relative potency (4h) diclofenac, Mean ± SD: 103.7 ± 16.65%
[1]; relative to % inhibition of diclofenac at 4 h, individual rats 1-3
  % Relative potency (4h) diclofenac: 122.90% and 93.20% and 95.0%
[1]; time 0, individual rats 1-3, 5 mg/kg orally, 5 mg/kg
  Volume of oedema (ml) 0: 5.02 mL and 4.96 mL
